Data as given in patent US12685726B2, “Sulfoximines as inhibitors of NaV1.8” (Gruenenthal GmbH, priority 2022, dated 2026).

Target: T1, human NaV 1.8 (Homo sapiens, UniProt Q9Y5Y9)
T1 construct: expressed in transfected cells; host or cells: HEK (recombinant cell line)
Test: Automated whole-cell patch clamp (Qube384) voltage-clamp recordings of sodium currents in HEK-NaV1.8 cell line
Format: cell-based
Conditions: read-out: Potency category (human NaV 1.8 IC50)
Method: Electrophysiology: Voltage-Clamp Recordings
The following NaV1.8 recombinant cell line was used for recordings: HEK-NaV1.8 (NM_006514.1) with b3 (NM_018400.3).
Sodium currents were measured using the patch clamp technique in the whole-cell configuration using the Qube384 (Sophion A/S, Copenhagen, Denmark) automated voltage clamp platform. “Multi hole” plates were used for the cell line expressing NaV1.8 while “single hole” plates were used for the recombinant cell lines expressing the other subtypes. Appropriate filters (for minimum seal resistance and minimum current size) and series resistance compensation (for high quality sodium channel recordings) were applied. Data was collected at ambient room temperature or 19° C.
The recording extracellular solution contained (in mM): NaCl 145 mM, KCl 4 mM, CaCl2 2 mM, MgCl2 1 mM, HEPES 10 mM, Glucose 10 mM, pH 7.4 (NaOH). The intracellular recording solution contained (in mM): CsF 120 mM, CsCl 20 mM, NaCl 10 mM, EGTA 10 mM, HEPES 10 mM, pH 7.2 (CsOH). Currents were recorded at 25 kHz sampling frequency and filtered at 5 kHz. Series resistance compensation was applied at 65%.
Vehicle (VEH) is the control condition where cells are exposed to 0.3% DMSO without compound. All runs include VEH controls being exposed to the same voltage protocols to assess non-compound related phenomena such as run down and then used to isolate compound dependent effects on currents.
To check for state-dependent inhibition, the following voltage-sequence was applied every 20 seconds:
From a resting membrane potential of −120 mV, the first test pulse (P1; 20 ms to −10 mV) was applied to check for channels in the Resting State followed by a brief recovery (100 ms to −120 mV), then holding the membrane voltage to V1/2 (4 seconds at voltage to obtain half the channel at Rest and half Inactivated) with a subsequent second test pulse (P2; 20 ms to −10 mV) to check for channels in the Inactivated State, followed by another brief recovery (20 ms to −120 mV) and a final third test pulse (P3; 20 ms to −10 mV) to check for recovered channels.
To check for frequency-dependent inhibition, a 10 Hz protocol and a 20 Hz protocol were applied; namely,
From a resting membrane potential of −120 mV, 40-pulses (10 ms to −10 mV) was applied at 10 Hz (at 100 ms between pulses) and then at 20 Hz (at 50 ms between pulses).
Each parameter was recorded (P1, P2, P3, P40 from 10 Hz and P40 from 20 Hz) during a control period (lasting 5 minutes) when establishing the baseline and during compound period (lasting ~12 minutes) when test compound (or vehicle) was applied. For each parameter, the value at the end of the compound period was normalized to the vehicle baseline; as follows
To adjust for any variance in the Na^+ current signal during the compound period (owing to cumulative inactivation independent of compound or shifts in biophysics over time), a dedicated segment of the recording wells in each 384 plate were dedicated to having only vehicle exposure. These vehicle-only recordings were used to correct for any apparent “run-up” or “run-down” in the experiment.
The adjusted inhibition was calculated as follows: […]
Percent inhibition was determined and IC50 values were calculated using a 4 parameter logistic model within XLFit Software (IDBS, Boston MA): F
[formula] where A and B are the maximal and minimum inhibition respectively, C is the IC50 concentration and D is the (Hill) slope.

T1 sequence (Q9Y5Y9 whole entry): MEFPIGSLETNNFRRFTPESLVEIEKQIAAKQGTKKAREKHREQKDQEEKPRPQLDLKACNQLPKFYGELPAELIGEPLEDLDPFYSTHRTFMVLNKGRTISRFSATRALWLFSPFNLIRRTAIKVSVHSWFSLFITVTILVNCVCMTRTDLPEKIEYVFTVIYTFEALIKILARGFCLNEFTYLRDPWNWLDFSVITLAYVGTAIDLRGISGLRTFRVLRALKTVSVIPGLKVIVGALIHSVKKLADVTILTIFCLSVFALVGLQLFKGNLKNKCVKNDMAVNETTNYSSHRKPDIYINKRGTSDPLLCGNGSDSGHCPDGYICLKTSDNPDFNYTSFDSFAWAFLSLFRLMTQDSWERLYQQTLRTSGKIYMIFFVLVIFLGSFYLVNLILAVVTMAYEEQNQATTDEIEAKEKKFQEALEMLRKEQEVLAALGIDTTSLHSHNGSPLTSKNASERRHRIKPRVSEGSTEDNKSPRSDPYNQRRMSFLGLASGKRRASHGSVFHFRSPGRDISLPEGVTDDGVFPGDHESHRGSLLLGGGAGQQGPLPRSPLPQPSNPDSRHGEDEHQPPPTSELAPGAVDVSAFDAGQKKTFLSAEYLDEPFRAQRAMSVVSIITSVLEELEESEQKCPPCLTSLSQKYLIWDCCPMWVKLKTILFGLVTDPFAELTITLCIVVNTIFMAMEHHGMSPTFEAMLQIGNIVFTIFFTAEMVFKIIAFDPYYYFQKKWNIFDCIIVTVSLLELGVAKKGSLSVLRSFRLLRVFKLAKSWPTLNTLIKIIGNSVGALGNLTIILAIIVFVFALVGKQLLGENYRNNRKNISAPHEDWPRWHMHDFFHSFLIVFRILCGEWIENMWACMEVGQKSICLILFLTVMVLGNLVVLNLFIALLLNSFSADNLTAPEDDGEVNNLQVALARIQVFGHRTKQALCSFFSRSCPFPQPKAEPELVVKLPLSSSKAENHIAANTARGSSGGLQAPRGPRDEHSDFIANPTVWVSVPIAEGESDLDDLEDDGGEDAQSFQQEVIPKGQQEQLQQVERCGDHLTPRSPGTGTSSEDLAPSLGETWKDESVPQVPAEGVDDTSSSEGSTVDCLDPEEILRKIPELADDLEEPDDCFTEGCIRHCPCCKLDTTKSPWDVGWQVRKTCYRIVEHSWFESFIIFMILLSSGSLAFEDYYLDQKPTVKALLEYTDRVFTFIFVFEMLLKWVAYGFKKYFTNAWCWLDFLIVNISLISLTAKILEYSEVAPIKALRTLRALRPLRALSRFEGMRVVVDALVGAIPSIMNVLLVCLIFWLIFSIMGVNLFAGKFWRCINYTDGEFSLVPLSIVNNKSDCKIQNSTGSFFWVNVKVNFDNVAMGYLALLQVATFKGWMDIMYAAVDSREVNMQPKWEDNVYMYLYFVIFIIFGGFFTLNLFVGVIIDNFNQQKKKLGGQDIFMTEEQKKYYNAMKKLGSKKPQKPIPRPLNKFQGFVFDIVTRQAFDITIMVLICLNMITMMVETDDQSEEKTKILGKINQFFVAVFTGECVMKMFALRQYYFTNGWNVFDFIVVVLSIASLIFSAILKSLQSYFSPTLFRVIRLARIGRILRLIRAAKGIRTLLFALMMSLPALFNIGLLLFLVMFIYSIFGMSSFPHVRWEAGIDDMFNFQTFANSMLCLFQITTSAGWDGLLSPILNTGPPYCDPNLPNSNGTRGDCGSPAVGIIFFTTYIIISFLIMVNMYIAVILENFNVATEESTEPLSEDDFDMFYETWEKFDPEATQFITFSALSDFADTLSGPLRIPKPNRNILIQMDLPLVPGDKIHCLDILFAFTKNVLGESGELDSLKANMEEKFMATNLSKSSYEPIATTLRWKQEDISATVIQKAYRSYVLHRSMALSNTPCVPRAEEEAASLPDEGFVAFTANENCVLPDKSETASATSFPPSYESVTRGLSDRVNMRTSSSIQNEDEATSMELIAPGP

Row | SMILES | IC50 [nM]
1 | CC1(Cn2nc(C3CC3)c(C(F)(F)F)c2C(=O)Nc2cnnc(S(C)(=N)=O)c2)CC(F)(F)C1 (single isomer, unassigned) [Example 47b, 3-cyclopropyl-1-((3,3-difluoro-1-methylcyclobutyl)methyl)-N-(6-(S-methylsulfonimidoyl)pyridazin-4-yl)-4-(trifluoromethyl)-1H-pyrazole-5-carboxamide] | ≤ 100
2 | CC1(Cn2nc(C3(C)CC3)c(C(F)(F)F)c2C(=O)Nc2ccnc(S(C)(=N)=O)c2)CC(F)(F)C1 (single isomer, unassigned) [Example 69b, 1-((3,3-difluoro-1-methylcyclobutyl)methyl)-3-(1-methylcyclopropyl)-N-(2-(S-methylsulfonimidoyl)pyridin-4-yl)-4-(trifluoromethyl)-1H-pyrazole-5-carboxamide] | ≤ 100
3 | Cc1c(C(C)(F)F)nn(CC2(C)CCC(F)(F)CC2)c1C(=O)Nc1ccnc(S(C)(=N)=O)c1 (single isomer, unassigned) [Example 11b, 1-((4,4-difluoro-1-methylcyclohexyl)methyl)-3-(1,1-difluoroethyl)-4-methyl-N-(2-(S-methylsulfonimidoyl)pyridin-4-yl)-1H-pyrazole-5-carboxamide] | ≤ 100
4 | CS(=N)(=O)c1cc(NC(=O)c2c(C(F)(F)F)c(C3CC3)nn2CC2C3(CC3)C23CC3)ccn1 (single isomer, unassigned) [Example 80b, 3-cyclopropyl-1-(dispiro[2.0.24.13]heptan-7-ylmethyl)-N-(2-(S-methylsulfonimidoyl)pyridin-4-yl)-4-(trifluoromethyl)-1H-pyrazole-5-carboxamide] | ≤ 100
5 | CC1(Cn2nc(C3(F)CC3)c(C(F)(F)F)c2C(=O)Nc2cc(F)cc(S(C)(=N)=O)c2)CC(F)(F)C1 (single isomer, unassigned) [Example 127a, 1-((3,3-Difluoro-1-methylcyclobutyl)methyl)-N-(3-fluoro-5-(S-methylsulfonimidoyl)phenyl)-3-(1-fluorocyclopropyl)-4-(trifluoromethyl)-1H-pyrazole-5-carboxamide] | ≤ 100
6 | CC1(Cn2nc(C3CCC3)c(C(F)(F)F)c2C(=O)Nc2ccnc(S(C)(=N)=O)c2)CC(F)(F)C1 (single isomer, unassigned) [Example 56a, 3-cyclobutyl-1-((3,3-difluoro-1-methylcyclobutyl)methyl)-N-(2-(S-methylsulfonimidoyl)pyridin-4-yl)-4-(trifluoromethyl)-1H-pyrazole-5-carboxamide] | ≤ 100
7 | C[C@]1(Cn2nc(C3CC3)c(C(F)(F)F)c2C(=O)Nc2ccnc([S@@](C)(=N)=O)c2)CC(F)(F)C12CC2 (single isomer, unassigned) [Example 92b, 3-cyclopropyl-1-((6,6-difluoro-4-methylspiro[2.3]hexan-4-yl)methyl)-N-(2-(S-methylsulfonimidoyl)pyridin-4-yl)-4-(trifluoromethyl)-1H-pyrazole-5-carboxamide] | ≤ 100
8 | C[S@](=N)(=O)c1cccc(NC(=O)c2c(C(F)(F)F)c(C3(F)CC3)nn2CC2C[C@H]2C(F)(F)F)c1 (single isomer, unassigned) [Example 134d, 3-(1-Fluorocyclopropyl)-N-(3-(S-methylsulfonimidoyl)phenyl)-4-(trifluoromethyl)-1-(((trans)-2-(trifluoromethyl)cyclopropyl)methyl)-1H-pyrazole-5-carboxamide] | ≤ 100
9 | CC1(Cn2nc(C3CC3)c(C(F)(F)F)c2C(=O)Nc2cncc(S(C)(=N)=O)c2)CC(F)(F)C1 (single isomer, unassigned) [Example 46b, 3-cyclopropyl-1-((3,3-difluoro-1-methylcyclobutyl)methyl)-N-(5-(S-methylsulfonimidoyl)pyridin-3-yl)-4-(trifluoromethyl)-1H-pyrazole-5-carboxamide] | ≤ 100
10 | CC1(Cn2nc(C3(F)CC3)c(C(F)(F)F)c2C(=O)Nc2cccc(S(C)(=O)=NC(=O)C3COC3)c2)CC(F)(F)C1 (single isomer, unassigned) [Example 150b, 1-((3,3-Difluoro-1-methylcyclobutyl)methyl)-3-(1-fluorocyclopropyl)-N-(3-(S-methyl-N-(oxetane-3-carbonyl)sulfonimidoyl)phenyl)-4-(trifluoromethyl)-1H-pyrazole-5-carboxamide] | ≤ 100
11 | C[S@](=N)(=O)c1cc(NC(=O)c2c(C(F)(F)F)c(C3CC3)nn2C[C@@H]2CC23CC3)ccn1 (single isomer, unassigned) [Example 78b, 3-cyclopropyl-N-(2-(S-methylsulfonimidoyl)pyridin-4-yl)-1-(spiro[2.2]pentan-1-ylmethyl)-4-(trifluoromethyl)-1H-pyrazole-5-carboxamide] | ≤ 100
12 | CC1(Cn2nc(C34CC(C3)C4(F)F)c(C(F)(F)F)c2C(=O)Nc2ccnc(S(C)(=N)=O)c2)CC(F)(F)C1 (single isomer, unassigned) [Example 114, 1-((3,3-Difluoro-1-methylcyclobutyl)methyl)-3-(2,2-difluorobicyclo[1.1.1]pentan-1-yl)-N-(2-(S-methylsulfonimidoyl)pyridin-4-yl)-4-(trifluoromethyl)-1H-pyrazole-5-carboxamide] | ≤ 100
13 | C[C@@H]1C[C@H]1c1nn(CC2(C)CC(F)(F)C2)c(C(=O)Nc2ccnc([S@](C)(=N)=O)c2)c1C(F)(F)F (single isomer, unassigned) [Example 65c, 1-((3,3-Difluoro-1-methylcyclobutyl)methyl)-3-((trans)-2-methylcyclopropyl)-N-(2-(S-methylsulfonimidoyl)pyridin-4-yl)-4-(trifluoromethyl)-1H-pyrazole-5-carboxamide] | ≤ 100
14 | C[C@@H]1C[C@H]1c1nn(CC2(C)CC(F)(F)C2)c(C(=O)Nc2ccnc([S@@](C)(=N)=O)c2)c1C(F)(F)F (single isomer, unassigned) [Example 65d, 1-((3,3-Difluoro-1-methylcyclobutyl)methyl)-3-((trans)-2-methylcyclopropyl)-N-(2-(S-methylsulfonimidoyl)pyridin-4-yl)-4-(trifluoromethyl)-1H-pyrazole-5-carboxamide] | ≤ 100
15 | CC1(Cn2nc(C3CC3(F)F)c(C(F)(F)F)c2C(=O)Nc2ccnc(S(C)(=N)=O)c2)CC(F)(F)C1 (single isomer, unassigned) [Example 63a, 1-((3,3-Difluoro-1-methylcyclobutyl)methyl)-3-(2,2-difluorocyclopropyl)-N-(2-(S-methylsulfonimidoyl)pyridin-4-yl)-4-(trifluoromethyl)-1H-pyrazole-5-carboxamide] | ≤ 100
16 | CS(=N)(=O)c1cc(NC(=O)c2c(C(F)(F)F)c(C3CC3)nn2CC23CC2CC(F)(F)C3)ccn1 (single isomer, unassigned) [Example 95a, 3-Cyclopropyl-1-((3,3-difluorobicyclo[3.1.0]hexan-1-yl)methyl)-N-(2-(S-methylsulfonimidoyl)pyridin-4-yl)-4-(trifluoromethyl)-1H-pyrazole-5-carboxamide] | ≤ 100
17 | CC1(Cn2nc(C3(F)CC3)c(C(F)(F)F)c2C(=O)Nc2cc(F)cc(S(C)(=N)=O)c2)CC(F)(F)C1 (single isomer, unassigned) [Example 127b, 1-((3,3-Difluoro-1-methylcyclobutyl)methyl)-N-(3-fluoro-5-(S-methylsulfonimidoyl)phenyl)-3-(1-fluorocyclopropyl)-4-(trifluoromethyl)-1H-pyrazole-5-carboxamide] | ≤ 100
18 | CC1(Cn2nc(C3(F)CC3)c(C(F)(F)F)c2C(=O)Nc2ccnc(S(C)(=N)=O)c2)CC(F)(F)C1 (single isomer, unassigned) [Example 70b, 1-((3,3-Difluoro-1-methylcyclobutyl)methyl)-3-(1-fluorocyclopropyl)-N-(2-(S-methylsulfonimidoyl)pyridin-4-yl)-4-(trifluoromethyl)-1H-pyrazole-5-carboxamide] | ≤ 100
19 | CS(=N)(=O)c1cc(NC(=O)c2c(C(F)(F)F)c(C3CC3)nn2C[C@@H]2CCC(F)(F)C2)ccn1 (single isomer, unassigned) [Example 17c] | ≤ 100
